target: Carbonic anhydrase 2 (Bos taurus, UniProt P00921); assay: Inhibition of bovine erythrocyte carbonic anhydrase 2 using p-nitrophenyl acetate as substrate preincubated for 10 mins before substrate addition measured after 30 mins by spectrophotometric analysis
Sequence (P00921 whole entry): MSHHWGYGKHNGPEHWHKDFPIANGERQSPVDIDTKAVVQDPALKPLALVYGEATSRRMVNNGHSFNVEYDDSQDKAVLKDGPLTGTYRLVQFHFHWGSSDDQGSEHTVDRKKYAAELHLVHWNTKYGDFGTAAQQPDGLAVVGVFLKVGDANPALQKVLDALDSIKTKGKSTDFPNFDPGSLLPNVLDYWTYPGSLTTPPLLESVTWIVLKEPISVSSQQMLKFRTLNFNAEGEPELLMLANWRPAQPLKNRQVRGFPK

Row | IC50 | SMILES
1 | 0.49 µM | NS(=O)(=O)c1cccc(NC(=S)NC(=O)c2cccc([N+](=O)[O-])c2)c1
2 | 0.011 µM | NS(=O)(=O)c1ccc(NC(=S)NC(=O)c2cccs2)cc1
3 | 5.58 µM | NS(=O)(=O)c1cccc(NC(=S)NC(=O)C23CC4CC(CC(C4)C2)C3)c1
4 | 13.5 µM | NS(=O)(=O)c1cccc(NC(=S)NC(=O)c2ccccc2Cl)c1
5 | 0.22 µM | NS(=O)(=O)c1cccc(NC(=S)NC(=O)c2cccc(Cl)c2)c1
6 | 5.64 µM | NS(=O)(=O)c1cccc(NC(=S)NC(=O)c2ccc(Cl)cc2)c1
7 | 17.1 µM | NS(=O)(=O)c1cccc(NC(=S)NC(=O)c2ccc(Cl)cc2Cl)c1
8 | 14.2 µM | NS(=O)(=O)c1cccc(NC(=S)NC(=O)c2cc([N+](=O)[O-])cc([N+](=O)[O-])c2)c1
9 | 9.76 µM | NS(=O)(=O)c1cccc(NC(=S)NC(=O)c2ccco2)c1
10 | 0.052 µM | NS(=O)(=O)c1cccc(NC(=S)NC(=O)c2cccs2)c1
11 | 1.28 µM | CC(C)(C)C(=O)NC(=S)Nc1cccc(S(N)(=O)=O)c1
12 | 13.4 µM | NS(=O)(=O)c1cccc(NC(=S)NC(=O)c2cc3ccccc3oc2=O)c1
13 | 11.3 µM | NS(=O)(=O)c1ccc(NC(=S)NC(=O)c2cc3ccccc3oc2=O)cc1

Reference: ChEMBL document CHEMBL3232841, “New aminobenzenesulfonamide-thiourea conjugates: synthesis and carbonic anhydrase inhibition and docking studies” (Eur J Med Chem, 2014)
